According to PubChem BioAssay AID256 (DTP/NCI, 2004):
Several values for one entry are separate records, joined by “and”; a condition that tells them apart may be missing. Equal entries are not always repeated. Inconclusive results and toxic doses are left out. The calls were made as follows: active = survival T/C of 150% or more; inactive = T/C below 125% in these data.

Tested on: CD2F1 mice, L1210 leukemia ip, survival T/C
Assay: NCI In Vivo Anticancer Drug Screen. Data for tumor model L1210 Leukemia (intraperitoneal) in CD2F1 (CDF1) mice
Settings: endpoint: mean survival time, higher = longer survival
Method in brief: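 Each value reflects a quotient of treated over vehicle control outcomes in mice with a transplanted tumor.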

[1] = dose: 100.0 mg/kg/injection, schedule: Q04DX003 (ip), vehicle: saline with Tween-80
[2] = dose: 200.0 mg/kg/injection, schedule: Q04DX003 (ip), vehicle: saline with Tween-80
[3] = dose: 400.0 mg/kg/injection, schedule: Q04DX003 (ip), vehicle: saline with Tween-80
[4] = dose: 100.0 mg/kg/injection, schedule: Q01DX001 (ip), vehicle: saline with Tween-80
[5] = dose: 200.0 mg/kg/injection, schedule: Q01DX001 (ip), vehicle: saline with Tween-80
[6] = dose: 200.0 mg/kg/injection, schedule: Q04DX002 (ip), vehicle: saline
[7] = dose: 400.0 mg/kg/injection, schedule: Q04DX002 (ip), vehicle: saline
[8] = dose: 12.5 mg/kg/injection, schedule: Q01DX005 (ip), vehicle: water
[9] = dose: 25.0 mg/kg/injection, schedule: Q01DX005 (ip), vehicle: water
[10] = dose: 100.0 mg/kg/injection, schedule: Q01DX009 (ip), vehicle: saline with Tween-80
[11] = dose: 200.0 mg/kg/injection, schedule: Q01DX009 (ip), vehicle: saline with Tween-80
[12] = dose: 400.0 mg/kg/injection, schedule: Q01DX009 (ip), vehicle: saline with Tween-80
[13] = dose: 25.0 mg/kg/injection, schedule: Q04DX002 (ip), vehicle: saline with Tween-80
[14] = dose: 100.0 mg/kg/injection, schedule: Q04DX002 (ip), vehicle: saline with Tween-80
[15] = dose: 50.0 mg/kg/injection, schedule: Q01DX009 (ip), vehicle: saline with Tween-80
[16] = dose: 100.0 mg/kg/injection, schedule: Q04DX002 (ip), vehicle: saline

Measured: T/C

O=c1cc2cccccc-2cc1O
inactive: dose: 5.0 mg/kg/injection, schedule: Q01DX001 (ip), vehicle: saline 103 % of control | dose: 10.0 mg/kg/injection, schedule: Q01DX001 (ip), vehicle: saline 97 % of control | dose: 20.0 mg/kg/injection, schedule: Q01DX001 (ip), vehicle: saline 101 % of control | dose: 20.0 mg/kg/injection, schedule: Q04DX003 (ip), vehicle: saline with Tween-80 97 % of control | dose: 40.0 mg/kg/injection, schedule: Q01DX001 (ip), vehicle: saline 103 % of control | dose: 40.0 mg/kg/injection, schedule: Q04DX003 (ip), vehicle: saline with Tween-80 97 % of control | dose: 80.0 mg/kg/injection, schedule: Q01DX001 (ip), vehicle: saline 97 % of control

OCP(CO)CO.[Cl][Hg][Cl]
inactive: dose: 12.5 mg/kg/injection, schedule: Q04DX003 (ip), vehicle: saline 119 % of control | dose: 25.0 mg/kg/injection, schedule: Q04DX003 (ip), vehicle: saline 116 % of control

CCOC(=O)CC(COC)C(Br)(C(=O)OCC)C(=O)OCC (centres undefined)
inactive: dose: 1.56 mg/kg/injection, schedule: Q01DX009 (ip), vehicle: Klucel (hydroxypropylcellulose) (HPC) 104 % of control | dose: 3.13 mg/kg/injection, schedule: Q01DX009 (ip), vehicle: Klucel (hydroxypropylcellulose) (HPC) 107 % of control | dose: 6.25 mg/kg/injection, schedule: Q01DX009 (ip), vehicle: Klucel (hydroxypropylcellulose) (HPC) 102 % of control | dose: 12.5 mg/kg/injection, schedule: Q01DX009 (ip), vehicle: Klucel (hydroxypropylcellulose) (HPC) 104 % of control | dose: 25.0 mg/kg/injection, schedule: Q01DX009 (ip), vehicle: Klucel (hydroxypropylcellulose) (HPC) 104 % of control

OC(CCc1ccccc1)(C(F)(F)Cl)C(F)(F)Cl
inactive: [1] 98 % of control | [2] 89 % of control | [3] 92 % of control

CSCC1CCCCC12OCCO2 (centres undefined)
inactive: [4] 104 % of control | [5] 96 % of control | dose: 400.0 mg/kg/injection, schedule: Q01DX001 (ip), vehicle: saline with Tween-80 96 % of control

O=c1ccocc1O
inactive: [6] 95 % of control | [7] 92 % of control

[Cu+2].[NH-]CC(=O)O.[NH-]CC(=O)O
inactive: dose: 5.0 mg/kg/injection, schedule: Q01DX009 (ip), vehicle: saline 98 % of control | dose: 10.0 mg/kg/injection, schedule: Q01DX009 (ip), vehicle: saline 104 % of control

O=C1C=C(C2OC(CI)C(O)C2O)C(=O)N1 (centres undefined)
inactive: [8] 109 % of control | [9] 107 % of control

Cc1ccc(Cl)c(S(=O)(=O)F)c1
inactive: [10] 88 % of control | [1] 106 % of control | [11] 103 % of control | [2] 93 % of control | [12] 101 % of control | [3] 100 % of control

CN1C(=O)CC(c2ccc(N3C(=O)C=CC3=O)cc2)C1=O (centres undefined)
inactive: dose: 6.25 mg/kg/injection, schedule: Q04DX002 (ip), vehicle: saline with Tween-80 96 % of control | dose: 12.5 mg/kg/injection, schedule: Q04DX002 (ip), vehicle: saline with Tween-80 103 % of control | [13] 96 % of control

Cn1c(=O)c2c(ncn2CCNCC(O)c2ccc(O)c(O)c2)n(C)c1=O (centres undefined)
inactive: [8] 100 % of control | [9] 106 % of control | dose: 50.0 mg/kg/injection, schedule: Q01DX005 (ip), vehicle: water 97 % of control | dose: 100.0 mg/kg/injection, schedule: Q01DX005 (ip), vehicle: water 101 % of control | dose: 200.0 mg/kg/injection, schedule: Q01DX005 (ip), vehicle: water 106 % of control

CCOP(=O)(CC(=O)O)c1ccccc1 (centres undefined)
inactive: [13] 96 % of control | dose: 50.0 mg/kg/injection, schedule: Q04DX002 (ip), vehicle: saline with Tween-80 100 % of control | [14] 92 % of control

CNC(=S)SCCC(=O)O
inactive: [14] 113 % of control | dose: 200.0 mg/kg/injection, schedule: Q04DX002 (ip), vehicle: saline with Tween-80 102 % of control | dose: 400.0 mg/kg/injection, schedule: Q04DX002 (ip), vehicle: saline with Tween-80 102 % of control

O=S(=O)(/N=C/c1ccccc1)c1ccc(Cl)cc1
inactive: [15] 100 % of control | [10] 107 % of control

NC(=O)c1cccnc1
inactive: dose: 175.0 mg/kg/injection, schedule: Q04HX040 (ip), vehicle: water 109 % of control | dose: 350.0 mg/kg/injection, schedule: Q04HX040 (ip), vehicle: water 103 % of control

O=C(O)C(Cl)C(Cl)c1ccccc1 (centres undefined)
inactive: [16] 90 % of control | [6] 94 % of control | [7] 94 % of control

CCCCN(CCCC)CCCN1C(=O)c2ccccc2C1=O
inactive: dose: 1.9 mg/kg/injection, schedule: Q01DX009 (ip), vehicle: saline 97 % of control | dose: 3.7 mg/kg/injection, schedule: Q01DX009 (ip), vehicle: saline 107 % of control | dose: 7.5 mg/kg/injection, schedule: Q01DX009 (ip), vehicle: saline 100 % of control | dose: 15.0 mg/kg/injection, schedule: Q01DX009 (ip), vehicle: saline 87 % of control | dose: 30.0 mg/kg/injection, schedule: Q01DX009 (ip), vehicle: saline 89 % of control and 105 % of control

N#CCN(CC#N)CCN(CC#N)CC#N
inactive: [10] 92 % of control | [1] 97 % of control | [11] 93 % of control | [2] 97 % of control | [12] 104 % of control | [3] 97 % of control

CCCCCCCCCCCCCCCC(=O)NCC[N+](C)(CC)CC
inactive: dose: 75.0 mg/kg/injection, schedule: Q01DX001 (ip), vehicle: saline 109 % of control

CC(C)CCCC(C)C1CCC2C3CCC4=CC5(CCC4(C)C3CCC12C)SCCS5 (centres undefined)
inactive: [4] 87 % of control | [5] 91 % of control

O=[N+]([O-])c1ccc2nc3c(nc2c1)-c1cccc2cccc-3c12
inactive: [10] 98 % of control | [11] 98 % of control | [12] 98 % of control

COC(=O)N(C)c1cccc(OC(=O)N(C)C)c1
inactive: [1] 92 % of control | [2] 99 % of control | [3] 99 % of control

[Co].[NH-]CC[NH-].[NH-]CC[NH-].[NH-]CC[S-]
inactive: [16] 112 % of control | [6] 101 % of control | [7] 104 % of control

CC1=CC(C)(N=[N+]=[N-])CC(C)(C)C1 (centres undefined)
inactive: dose: 37.5 mg/kg/injection, schedule: Q01DX009 (ip), vehicle: saline 97 % of control | dose: 75.0 mg/kg/injection, schedule: Q01DX009 (ip), vehicle: saline 97 % of control

CC(=O)OC1CCC2C3CCC4(C)C(C(C)CCCC(C)C)CCC4C3CC(C)(O)C2C1 (centres undefined)
inactive: dose: 100.0 mg/kg/injection, schedule: Q01DX001 (sc), vehicle: steriod suspending solution 101 % of control | dose: 200.0 mg/kg/injection, schedule: Q01DX001 (sc), vehicle: steriod suspending solution 101 % of control | dose: 400.0 mg/kg/injection, schedule: Q01DX001 (sc), vehicle: steriod suspending solution 101 % of control

Cc1sc(C)c(CCl)c1CCl
inactive: dose: 12.5 mg/kg/injection, schedule: Q01DX009 (ip), vehicle: saline with Tween-80 104 % of control | dose: 25.0 mg/kg/injection, schedule: Q01DX009 (ip), vehicle: saline with Tween-80 108 % of control | [15] 98 % of control
